According to patent US7632840B2, “Quinazoline compounds for the treatment of hyperproliferative disorders” (AstraZeneca AB, priority 2004, dated 2009):

Assays:
KB cells = test: EGFR driven KB cell proliferation assay, Test (b); format: cell-based; settings: Homo sapiens
Description: Following adhesion to the plate, the cells are treated with or without EGF (final concentration of 1 ng/ml) and with or without compound at a range of concentrations in dimethylsulfoxide (DMSO) (0.1% final) before incubation for 4 days. […] MTT solution was then tipped off, the plate gently tapped dry and the cells dissolved upon the addition of 100 μl of DMSO.
Absorbance of the solubilised cells was read at 540 nm using a Molecular Devices ThermoMax microplate reader. Inhibition of proliferation was expressed as an IC50 value. […] The range of proliferation was calculated from the positive (vehicle plus EGF) and negative (vehicle minus EGF) control values.

EGFR tyrosine kinase = target: T1, EGFR tyrosine kinase (Homo sapiens, UniProt P00533); test: Protein tyrosine kinase phosphorylation assay, Test (a); format: biochemical; settings: read-out: 1C50 (nM) Test (a) (Inhibition of EGFR tyrosine kinase protein phosphorylation)
T1 construct: Recombinant intracellular fragments of EGFR, erbB2 and erbB4; made in house; host or cells: baculovirus/Sf21 insect cells (cleared lysate used)
Description: Recombinant intracellular fragments of EGFR, erbB2 and erbB4 (accession numbers X00588, X03363 and L07868 respectively) were cloned and expressed in the baculovirus/Sf21 system. Lysates were prepared from these cells by treatment with ice-cold lysis buffer (20 mM N-2-hydroxyethylpiperizine-N′-2-ethanesulfonic acid (HEPES) pH7.5, 150 mM NaCl, 10% glycerol, 1% Triton X-100, 1.5 mM MgCl2, 1 mM ethylene glycol-bis(β-aminoethyl ether) N′,N′,N′,N′-tetraacetic acid (EGTA), plus protease inhibitors and then cleared by centrifugation.
Constitutive kinase activity of these recombinant proteins was determined by their ability to phosphorylate a synthetic peptide (made up of a random co-polymer of Glutamic Acid, Alanine and Tyrosine in the ratio of 6:3:1). […]
The immobilised phospho-peptide product of the reaction was detected by immunological methods. […] After further washing, HRP activity in each well of the plate was measured colorimetrically using 22′-Azino-di-[3-ethylbenzthiazoline sulfonate (6)] diammonium salt crystals (ABTS™ from Roche) as a substrate.
Kinase inhibition for a given compound was expressed as an IC50 value. […] The range of phosphorylation was calculated from the positive (vehicle plus ATP) and negative (vehicle minus ATP) control values.

T1 sequence (P00533 669-1210 limits assumed): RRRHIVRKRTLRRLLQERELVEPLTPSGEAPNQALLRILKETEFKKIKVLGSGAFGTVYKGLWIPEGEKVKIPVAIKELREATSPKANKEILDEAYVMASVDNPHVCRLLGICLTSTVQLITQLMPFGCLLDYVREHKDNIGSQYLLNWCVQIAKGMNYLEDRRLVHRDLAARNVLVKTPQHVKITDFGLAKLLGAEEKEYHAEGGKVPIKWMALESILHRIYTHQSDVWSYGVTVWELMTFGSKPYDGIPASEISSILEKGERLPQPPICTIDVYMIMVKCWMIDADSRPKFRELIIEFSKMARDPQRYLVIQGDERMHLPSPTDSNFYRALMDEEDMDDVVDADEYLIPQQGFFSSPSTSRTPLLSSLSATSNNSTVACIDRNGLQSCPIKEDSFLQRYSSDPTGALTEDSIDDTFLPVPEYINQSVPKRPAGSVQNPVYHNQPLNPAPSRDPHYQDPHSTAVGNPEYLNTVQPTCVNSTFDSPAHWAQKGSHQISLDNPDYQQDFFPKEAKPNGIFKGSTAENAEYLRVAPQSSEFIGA

| IC50 (KB cells) [nM] | IC50 (EGFR tyrosine kinase) [nM] | SMILES |
| --- | --- | --- |
| 36 | 17 | CNC(=O)C1(N(C)Cc2cc3c(Nc4cccc(Cl)c4F)ncnc3cc2OC)CCN(C)CC1 [Example 20, 4-[({4-[(3-chloro-2-fluorophenyl)amino]-7-methoxyquinazolin-6-yl}methyl)(methyl)amino]-N,1-dimethylpiperidine-4-carboxamide] |
| 91 |  | COc1cc2ncnc(Nc3cccc(Cl)c3F)c2cc1CN(C)C1(C(N)=O)CCN(S(C)(=O)=O)CC1 [Example 66, 4-[({4-[(3-chloro-2-fluorophenyl)amino]-7-methoxyquinazolin-6-yl}methyl)(methyl)amino]-1-(methylsulfonyl)piperidine-4-carboxamide] |
